Source: PubChem BioAssay AID330 (DTP/NCI, 2004)
Several values for one entry are separate records, joined by “and”; a condition that tells them apart may be missing. Equal values may be shown once. Toxic doses and inconclusive results are not listed.

System: P388 leukemia ip, CD2F1 mice, survival T/C
Test: NCI In Vivo Anticancer Drug Screen. Data for tumor model P388 Leukemia (intraperitoneal) in CD2F1 (CDF1) mice
Conditions: endpoint: median survival time, higher = longer survival
Summary of the method: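 Mice carrying the transplanted tumor received test compound or vehicle. Survival was recorded in each group, and the value is the treated-group measurement divided by that of the vehicle-treated control group.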

[1] = dose: 12.5 mg/kg/injection, schedule: Q01DX009 (ip), vehicle: Klucel (hydroxypropylcellulose) (HPC)
[2] = dose: 25.0 mg/kg/injection, schedule: Q01DX009 (ip), vehicle: Klucel (hydroxypropylcellulose) (HPC)
[3] = dose: 50.0 mg/kg/injection, schedule: Q01DX009 (ip), vehicle: saline with Tween-80
[4] = dose: 100.0 mg/kg/injection, schedule: Q01DX009 (ip), vehicle: saline with Tween-80
[5] = dose: 200.0 mg/kg/injection, schedule: Q01DX009 (ip), vehicle: saline with Tween-80
[6] = dose: 50.0 mg/kg/injection, schedule: Q01DX009 (ip), vehicle: saline
[7] = dose: 50.0 mg/kg/injection, schedule: Q01DX009 (ip), vehicle: Klucel (hydroxypropylcellulose) (HPC)
[8] = dose: 100.0 mg/kg/injection, schedule: Q01DX009 (ip), vehicle: Klucel (hydroxypropylcellulose) (HPC)
[9] = dose: 25.0 mg/kg/injection, schedule: Q01DX005 (ip), vehicle: Klucel (hydroxypropylcellulose) (HPC)
[10] = dose: 100.0 mg/kg/injection, schedule: Q01DX005 (ip), vehicle: Klucel (hydroxypropylcellulose) (HPC)
[11] = dose: 50.0 mg/kg/injection, schedule: Q01DX005 (ip), vehicle: Klucel (hydroxypropylcellulose) (HPC)
[12] = dose: 200.0 mg/kg/injection, schedule: Q01DX005 (ip), vehicle: Klucel (hydroxypropylcellulose) (HPC)
[13] = dose: 60.0 mg/kg/injection, schedule: Q01DX005 (ip), vehicle: saline with Tween-80
[14] = dose: 120.0 mg/kg/injection, schedule: Q01DX005 (ip), vehicle: saline with Tween-80
[15] = dose: 240.0 mg/kg/injection, schedule: Q01DX005 (ip), vehicle: saline with Tween-80

For `BrC1(Br)C2CC3C(CC21)C3(Br)Br` (centres undefined), the T/C (dose: 37.5 mg/kg/injection, schedule: Q01DX001 (ip), vehicle: saline with Tween-80) was 100 % of control, the T/C (dose: 75.0 mg/kg/injection, schedule: Q01DX001 (ip), vehicle: saline with Tween-80) was 109 % of control and the T/C (dose: 150.0 mg/kg/injection, schedule: Q01DX001 (ip), vehicle: saline with Tween-80) was 100 % of control.

For `S=C(Nc1nccs1)Nc1nccs1`, the T/C (dose: 3.13 mg/kg/injection, schedule: Q01DX009 (ip), vehicle: Klucel (hydroxypropylcellulose) (HPC)) was 98 % of control, the T/C (dose: 6.25 mg/kg/injection, schedule: Q01DX009 (ip), vehicle: Klucel (hydroxypropylcellulose) (HPC)) was 98 % of control and the T/C [1] was 95 % of control. For the same compound, the T/C [2] was 92 % of control.

For `Cc1ccc(O)c(C(NCCO)c2ccccc2)c1` (centres undefined), the T/C (dose: 100.0 mg/kg/injection, schedule: Q04DX002 (ip), vehicle: saline) was 102 % of control.

`Cc1ccc(Nc2nnc(Nc3ccc(C)cn3)c3ccccc23)nc1` was tested, and the T/C (dose: 50.0 mg/kg/injection, schedule: Q01DX005 (ip), vehicle: saline with Tween-80) was 90 % of control and the T/C (dose: 100.0 mg/kg/injection, schedule: Q01DX005 (ip), vehicle: saline with Tween-80) was 89 % of control.

In the case of `CCNc1ccc2ccccc2c1N=Nc1ccc(N=Nc2ccccc2)cc1`, the T/C (dose: 25.0 mg/kg/injection, schedule: Q01DX009 (ip), vehicle: saline with Tween-80) is reported as 90 % of control, the T/C [3] is reported as 90 % of control and 94 % of control and the T/C [4] is reported as 95 % of control. The T/C [5] was 100 % of control.

With `O=C1OC(CO)C(O)C(O)C1O` (centres undefined) the T/C (dose: 50.0 mg/kg/injection, schedule: Q01DX005 (ip), vehicle: saline) was 100 % of control, the T/C (dose: 100.0 mg/kg/injection, schedule: Q01DX005 (ip), vehicle: saline) was 93 % of control and the T/C (dose: 200.0 mg/kg/injection, schedule: Q01DX005 (ip), vehicle: saline) was 96 % of control.

With `CCC[CH2][Ge](=[O])[CH2]CCC` the T/C [6] was 103 % of control, the T/C (dose: 100.0 mg/kg/injection, schedule: Q01DX009 (ip), vehicle: saline) was 102 % of control and the T/C (dose: 200.0 mg/kg/injection, schedule: Q01DX009 (ip), vehicle: saline) was 88 % of control.

With `CN(C)CCS(=O)(=O)O` the T/C (dose: 1.56 mg/kg/injection, schedule: Q04DX003 (ip), vehicle: saline) was 100 % of control, the T/C (dose: 3.12 mg/kg/injection, schedule: Q04DX003 (ip), vehicle: saline) was 100 % of control and the T/C (dose: 6.25 mg/kg/injection, schedule: Q04DX003 (ip), vehicle: saline) was 88 % of control. The T/C (dose: 12.5 mg/kg/injection, schedule: Q04DX003 (ip), vehicle: saline) was 94 % of control, the T/C (dose: 50.0 mg/kg/injection, schedule: Q04DX003 (ip), vehicle: saline) was 97 % of control and the T/C (dose: 100.0 mg/kg/injection, schedule: Q04DX003 (ip), vehicle: saline) was 102 % of control.

With `O=C(Nc1ccccc1)P(=O)(O)c1ccccc1` the T/C [1] was 93 % of control, the T/C [2] was 100 % of control and the T/C [7] was 97 % of control. The T/C [8] was 93 % of control.

`Clc1ccc2sc(-c3ccccc3)nc2c1` was tested, and the T/C [3] was 106 % of control, the T/C [4] was 103 % of control and the T/C [5] was 100 % of control. The T/C (dose: 400.0 mg/kg/injection, schedule: Q01DX009 (ip), vehicle: saline with Tween-80) was 100 % of control.

In the case of `Cc1ccc2[nH]c(N(C)C)nc2c2nc(Cl)nc1-2`, the T/C (dose: 8.25 mg/kg/injection, schedule: Q01DX005 (ip), vehicle: saline) is reported as 108 % of control, the T/C (dose: 16.5 mg/kg/injection, schedule: Q01DX005 (ip), vehicle: saline) is reported as 103 % of control and the T/C (dose: 33.0 mg/kg/injection, schedule: Q01DX005 (ip), vehicle: saline) is reported as 100 % of control. For the same compound, the T/C (dose: 66.0 mg/kg/injection, schedule: Q01DX005 (ip), vehicle: saline) was 97 % of control.

In the case of `CC1CN=C(CCc2ccc(NC(=O)c3ccc(C(=O)Nc4ccc(CCC5=NCC(C)N5)cc4)cc3)cc2)N1` (centres undefined), the T/C (dose: 12.5 mg/kg/injection, schedule: Q01DX005 (ip), vehicle: Klucel (hydroxypropylcellulose) (HPC)) is reported as 108 % of control, the T/C [9] is reported as 108 % of control and the T/C [10] is reported as 160 % of control.

For `Cc1ccc(C(=O)c2cc3c([nH]c4ccccc43)c(C)c2C(=O)O)cc1`, the T/C [11] was 103 % of control, the T/C [10] was 92 % of control and the T/C [12] was 100 % of control.

`O=C1Nc2ccccc2C1(N1CCCCC1)N1CCCCC1` was tested, and the T/C (dose: 12.5 mg/kg/injection, schedule: Q01DX009 (ip), vehicle: saline) was 99 % of control, the T/C (dose: 25.0 mg/kg/injection, schedule: Q01DX009 (ip), vehicle: saline) was 90 % of control and the T/C [3] was 101 % of control. The T/C [6] was 92 % of control and the T/C [5] was 86 % of control.

With `COc1ccccc1C1c2cc3c(cc2OC(C)(OC)C1C)OCO3` (centres undefined) the T/C [13] was 93 % of control, the T/C [14] was 90 % of control and the T/C [15] was 92 % of control.

In the case of `CCOC(=O)c1ccc(NC(=S)N(CCC#N)C2CCCCC2)cc1`, the T/C [7] is reported as 93 % of control, the T/C [8] is reported as 102 % of control and the T/C (dose: 200.0 mg/kg/injection, schedule: Q01DX009 (ip), vehicle: Klucel (hydroxypropylcellulose) (HPC)) is reported as 98 % of control.

`COc1ccc2c(c1)C(O)(CN)CCCCC(OC)CCCC2` (centres undefined) was tested, and the T/C (dose: 7.5 mg/kg/injection, schedule: Q01DX005 (ip), vehicle: saline with Tween-80) was 100 % of control, the T/C (dose: 15.0 mg/kg/injection, schedule: Q01DX005 (ip), vehicle: saline with Tween-80) was 101 % of control and the T/C (dose: 30.0 mg/kg/injection, schedule: Q01DX005 (ip), vehicle: saline with Tween-80) was 99 % of control. The T/C [13] was 101 % of control.

With `Cc1cc(OCc2nc(N)nc(N)c2-c2ccc(Cl)c(Cl)c2)ccc1NS(=O)(=O)c1cccc(S(=O)(=O)F)c1` the T/C (dose: 176.0 mg/kg/injection, schedule: Q04DX003 (ip), vehicle: saline) was 122 % of control and the T/C (dose: 400.0 mg/kg/injection, schedule: Q04DX003 (ip), vehicle: saline) was 150 % of control.

In the case of `NC(CCCCNc1ccc([N+](=O)[O-])cc1[N+](=O)[O-])C(=O)NC(Cc1ccc(O)cc1)C(=O)O` (centres undefined), the T/C (dose: 50.0 mg/kg/injection, schedule: Q01DX005 (ip), vehicle: saline + Tween-80 + alcohol) is reported as 101 % of control, the T/C (dose: 100.0 mg/kg/injection, schedule: Q01DX005 (ip), vehicle: saline + Tween-80 + alcohol) is reported as 101 % of control and the T/C (dose: 200.0 mg/kg/injection, schedule: Q01DX005 (ip), vehicle: saline + Tween-80 + alcohol) is reported as 103 % of control.

With `CCC1(C)CCC2(C)C(CCC3C4(C)CCCC32OC4=O)C1` (centres undefined) the T/C [9] was 96 % of control, the T/C [11] was 99 % of control and the T/C [10] was 101 % of control and 103 % of control. The T/C [12] was 99 % of control.

For `C=C1C(=O)OC2/C=C(\CO)C3OC3C3OC3(C)CC(OC(=O)/C(=C/C)COC(C)=O)C12` (centres undefined), the T/C [9] was 98 % of control and the T/C [11] was 114 % of control.

`COc1ccc(/C=N/c2oc(-c3ccccc3)c(-c3ccccc3)c2-c2ccc(OC)cc2)cc1` was tested, and the T/C (dose: 12.5 mg/kg/injection, schedule: Q01DX005 (ip), vehicle: saline with Tween-80) was 92 % of control and the T/C (dose: 25.0 mg/kg/injection, schedule: Q01DX005 (ip), vehicle: saline with Tween-80) was 87 % of control.

`FC(F)(F)c1nc(Cc2ccccc2)c(C(F)(F)F)o1` was tested, and the T/C (dose: 100.0 mg/kg/injection, schedule: Q04DX003 (ip), vehicle: saline with Tween-80) was 93 % of control, the T/C (dose: 200.0 mg/kg/injection, schedule: Q04DX003 (ip), vehicle: saline with Tween-80) was 93 % of control and the T/C (dose: 400.0 mg/kg/injection, schedule: Q04DX003 (ip), vehicle: saline with Tween-80) was 95 % of control.

With `ClCC1CSC(c2ccc3c(c2)OCO3)O1` (centres undefined) the T/C [3] was 101 % of control and 96 % of control, the T/C [4] was 121 % of control and 91 % of control and the T/C [5] was 98 % of control.

For `Cc1ccc2c(c1)-c1nc3nnnn3nc1C(C)(C)O2`, the T/C [13] was 92 % of control, the T/C [14] was 95 % of control and the T/C [15] was 98 % of control.

For `COc1cc(OC)c(C(=O)O)cc1C(C)=O`, the T/C [3] was 105 % of control, the T/C [4] was 115 % of control and the T/C [5] was 96 % of control.
